In patent US7632829B2, “Diazepan derivatives” (Hoffmann-La Roche Inc., priority 2006, dated 2009):

How the values were obtained:
CCR2 = biological target: T1, CCR2 (Homo sapiens, UniProt P41597); assay: Chemotaxis assay (THP1-4x cells, migration towards 10 nM MCP-1); format: cell-based; conditions: inhibition of specific migration towards MCP-1
T1 construct: endogenous in cells; host or cells: THP1-4x cells
T1 sequence (P41597 1-360 isoform P41597-2): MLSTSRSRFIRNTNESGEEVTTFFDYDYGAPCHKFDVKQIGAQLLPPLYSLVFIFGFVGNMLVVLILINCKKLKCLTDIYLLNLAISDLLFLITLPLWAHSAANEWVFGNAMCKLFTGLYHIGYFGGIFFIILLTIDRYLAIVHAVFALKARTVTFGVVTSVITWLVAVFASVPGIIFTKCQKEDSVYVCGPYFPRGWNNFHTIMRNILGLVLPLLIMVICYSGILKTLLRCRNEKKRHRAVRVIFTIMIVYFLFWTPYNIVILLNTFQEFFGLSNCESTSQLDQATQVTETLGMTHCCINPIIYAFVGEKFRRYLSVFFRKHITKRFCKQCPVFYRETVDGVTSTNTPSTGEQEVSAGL
Method: The chemotaxis assay was performed with THP1-4x cells (Mirzadegan et al. 2000, The Journal of Biological Chemistry 275, 33, 25562-25571) similar as described earlier (Kruszynski et al. 2005, Journal of Peptide Science, in press.).
THP1-4x were cultured in RPMI1640, 2 mM L-glutamine, 0.15% Na-bicarbonat, 0.25% D-glucose, 10 mM Hepes, […] Na-pyruvate, […] β-mercaptoethanol, 10% FBS. Isolated cells were labelled in culture medium with 2.5 μg/ml calcein-AM (Molecular Probes) for 60 minutes at 37° C. Excess calcein was removed and cells were washed in D-PBS^++, 2% FBS.
Cells (1×10^5) with or without various concentrations of test compounds were loaded on the top of 8-μm polycarbonate filter in a 96-well-modified Boyden chamber (NeuroProbe). Beneath the filter 10 nM MCP-1 (R&D Systems; Roche) with or without test compounds or D-PBS^++, 2% FBS was placed in the corresponding well. The closed chambers were incubated for 1 hour at 37° C., 5% CO2. Remaining cells in the top compartment were wiped off and migrated cells were measured as fluorescence in the bottom compartment in a FLUOstar (Galaxy BMG) at 485 nm excitation and 530 nm emission. Specific migration is defined as total migration towards MCP-1 minus the background migration towards D-PBS^++, 2% FBS. The ability of test compounds to antagonize CCR2-chemotaxis is reported as concentration required to inhibit 50% of specific migration (IC50) towards MCP-1.

[1] = biological target: T2, human chemokine receptor 2 isoform B (Homo sapiens, UniProt P41597); assay: Calcium mobilization assay (FLIPR, CHOK1-CCR2B-A5 cells, 20 nM MCP-1); format: cell-based; conditions: Ca mobilisation assay, CCR2, antagonist activity vs 20 nM MCP-1
T2 construct: host or cells: CHOK1-CCR2B-A5 (CHO-K1)
T2 sequence (P41597 1-360 isoform P41597-2): T1 sequence (P41597 1-360 isoform P41597-2)
In short: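 Antagonism read as IC50 against 20 nM MCP-1-evoked calcium rise (peak minus baseline Fluo-4 signal, FLIPR) in CCR2B-overexpressing CHO-K1 cells. Compounds were preincubated 20-30 min at 30 °C, with agonist activity recorded for 80 s on addition.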

Compound	IC50 (CCR2)	IC50 [1]
O=C(/C=C/c1ccc(Cl)c(Cl)c1)N1CCC(=O)N(CCCN2CCC(O)(c3ccccc3)CC2)CC1 [Example 59, 1-[(E)-3-(3,4-Dichloro-phenyl)-acryloyl]-4-[3-(4-hydroxy-4-phenyl-piperidin-1-yl)-propyl]-[1,4]diazepan-5-one]	0.077 µM	0.014 µM
O=C1NC(=O)C2(CCN(CCCN3CCN(C(=O)/C=C/c4ccc(Cl)c(Cl)c4)CCC3=O)CC2)N1 [Example 48, 8-(3-{4-[(E)-3-(3,4-Dichloro-phenyl)-acryloyl]-7-oxo-[1,4]diazepan-1-yl}-propyl)-1,3,8-triaza-spiro[4.5]decane-2,4-dione]	0.013 µM	0.064 µM
O=C(/C=C/c1ccc(Cl)c(Cl)c1)N1CCC(=O)N(CCCN2CCC(O)(c3ccccn3)CC2)CC1 [Example 69, 1-[(E)-3-(3,4-Dichloro-phenyl)-acryloyl]-4-[3-(4′-hydroxy-3′,4′,5′,6′-tetrahydro-2′H-[2,4′]bipyridinyl-1′-yl)-propyl]-[1,4]diazepan-5-one]	–	0.185 µM

Other lines, results leading:

IC50 (CCR2)	IC50 [1]	Compound
0.101 µM	0.232 µM	O=C(/C=C/c1ccc(Cl)c(Cl)c1)N1CCC(=O)N(CCN2CCCC2)CC1 [Example 160, 1-[(E)-3-(3,4-Dichloro-phenyl)-acryloyl]-4-(2-pyrrolidin-1-yl-ethyl)-[1,4]diazepan-5-one]
0.071 µM	0.204 µM	O=C(/C=C/c1ccc(Cl)c(Cl)c1)N1CCC(=O)N(CCCN2CCCC(O)C2)CC1 (racemic) [Example 81, (+/−)-1-[(E)-3-(3,4-Dichloro-phenyl)-acryloyl]-4-[3-(3-hydroxy-piperidin-1-yl)-propyl]-[1,4]diazepan-5-one]
–	0.706 µM	COC1CCN(CCCN2CCN(C(=O)/C=C/c3ccc(Cl)c(Cl)c3)CCC2=O)CC1 [Example 79, 1-[(E)-3-(3,4-Dichloro-phenyl)-acryloyl]-4-[3-(4-methoxy-piperidin-1-yl)-propyl]-[1,4]diazepan-5-one]
–	0.688 µM	CC(C)N1CCC(NCCN2CCN(C(=O)/C=C/c3ccc(Cl)c(Cl)c3)CCC2=O)CC1 [Example 136, 1-[(E)-3-(3,4-Dichloro-phenyl)-acryloyl]-4-[2-(1-isopropyl-piperidin-4-ylamino)-ethyl]-[1,4]diazepan-5-one]
–	0.864 µM	O=C(/C=C/c1ccc(F)c(Cl)c1)N1CCC(=O)N(CCCN2CCC(O)CC2)CC1 [Example 196]
